Data from patent publication US6472541B2, “Protecting groups with increased photosensitivities” (The Regents of the University of California, priority 1998, dated 2002).
Counter-ions that a name gives are not always drawn. Each block holds one molecule with its values, some of them ahead of it.

Legend:
[1] = One-photon photolysis quantum efficiency (UV irradiation, HPLC analysis); format: physicochemical
Experimental: (§1) The electronic absorption and emission properties of the compounds were measured and the stability of the compounds toward hydrolysis in the dark was tested. Stability in the dark can be used to help identify photolabile protecting groups that can be used in a variety of different conditions. Specifically, the quantum efficiencies for one-photon excitation and rates of hydrolysis in the dark were determined.
[…] The duration of each irradiation period was controlled by an electronic shutter. Between each irradiation, a small aliquot (10 μL) of the solution was removed for analysis by reversed phase HPLC with a Betabasic-18 column eluted with a isocratic mixture of 60% acetonitrile and water containing 0.1% trifluoracetic acid at a flow rate of 0.8 mL/min, using absorbance detection at 325 nm. […] […] Quantum efficiencies were calculated as (Iσt90%)^−1, where I is the irradiation intensity in einsteins (cm^−2s^−1), σ is the decadic extinction coefficient in cm^2mol^−1 (10^3 times ε, the usual extinction coefficient in M^−1cm^−1), and t90% is the irradiation time in seconds for 90% conversion to product. […] Dark hydrolysis rates were measured similarly except without illumination.

[2] = Electronic absorption and emission properties; format: physicochemical; conditions: for λmax Wavelength of peak absorbance: pH 7.2; for ε Molar absorptivity at absorbance peak: pH 7.2, at absorbance peak
Experimental: Generally, chemicals and solvents were used directly as received unless otherwise noted. Acetonitrile, chloroform and dichloromethane were dried over 4A molecular sieves. Proton magnetic resonance spectra (^1H NMR) were recorded on a Gemini 200 MHz spectrometer (Varian; Palo Alto, Calif.) and reported in ppm (δ) downfield from tetramethylsilane with residual solvent peaks as the internal standards. Ultraviolet spectra were recorded on a Cary 3E UV-Visible spectrophotometer (Varian, Palo Alto, Calif., USA). Fluorescence spectra were recorded on a Fluorolog spectrofluorometer (SPEX; Edison, N.J., USA). Mass spectra were recorded on a electrospray mass spectrometer (5989B, Hewlett-Packard; Palo Alto, Calif., USA). Thin layer chromatography (TLC) and column chromatography were performed on precoated silica gel 60F-254 plates and 230-400 mesh silica gel 60 respectively (EM Separations; Gibbstown, N.J., USA). All manipulations of compounds sensitive to near ultraviolet light were performed under an orange safety lamp.
as §1

rat cortical neurons = test: One-photon UV uncaging of caged glutamate on brain slices, neuronal responses; format: cell-based; conditions: one-photon UV uncaging at 365 nm, 10 mW, average
Experimental: The photolabile protecting groups can be uncaged by one-photon or two-photon photolysis. One-photon ultraviolet uncaging experiments were carried out on brain slices. In particular, compound 7 was used to deliver glutamate to rat cortical neurons. One-photon UV uncaging of caged glutamate compound at 365 nm released the glutamate. Neuronal responses were measured after directly stimulating cells as described in Sawatari and Callaway, Nature 380:442-446 (1996). The cells were exposed to compound 7 (Bhc-Glu) or γ-(α-carboxy-2-nitrobenzyl)glutamate, trifluoroacetate salt (compound 1, CNB-glutamate). The one-photon uncaging was carried out as described in FIG. 1 depicts the lower power needed to uncage compound 7 (Bhc-Glu) in the neuron sample in comparison to compound 1 (alpha-carboxy nitrobenzyl-caged glutamate, CNB-Glu). At 10 mW the compound 7-stimulated neurons respond, on average, at amplitudes 80% of their maximum, while compound 1-stimulated neurons are responding at less than 20% of their maximum amplitudes.

[3] = In vitro measurements of two-photon uncaging and fluorescence cross-sections; format: physicochemical; conditions: pH 7.2
Experimental: Measurements of cross-sections for two-photon uncaging were carried out in microcuvettes with cylindrical cavities having a 1 cm path length and 20 μL total volume (Type 26F, Starna). Femtosecond infrared pulses from a mode-locked titanium-sapphire laser (Spectra-Physics TSUNAMI, pumped by a Spectra-Physics MILLENNIUM) were aimed along the axis of the sample chamber and focused in its center with a 25 mm focal length lens (06LXP003/076, Melles Griot, Irvine, Calif.) optimized for infrared lasers. The pulse parameters were estimated by replacing the caged compound by a solution of fluorescein, a reference compound of known fluorescence quantum yield Qf2 (0.9) and two-photon absorbance cross-section δaF (30 and 38 GM at 740 and 800 nm respectively). The time-averaged fluorescence <F(t)>collected by the detector is given by equation (1)
<F(t)>=0.5φQf2δaFCF<I0^2(t)>∫S^2(r)dV (1)
where φ is the collection efficiency of the detector, CF is the concentration of fluorescein, <I0^2(t)> is the mean squared light intensity, S(r) is a unitless spatial distribution function, and the integral is over the volume of the microcuvette. The fluorescence emitted at right angles to the laser beam was measured through a 535 nm bandpass filter in front of a silicon photodiode radiometer (IL1700, International Light). The collection efficiency φ was estimated as Ay/(4πR^2n^2), where A is the area of the detector (0.38 cm^2), y is the fraction of the integrated emission spectrum transmitted by the interference filter (0.377), measured separately in a spectrofluorometer, R is the distance from the center of the cuvette to the detector (3.83 cm), and n is the refractive index of water (1.333). For photolysis of a caged compound or substrate, the number NP of molecules of product formed per unit time is (eq. 2):
NP=0.5Qu2δaSCS<I0^2(t)>∫S^2(r)dV (2)
where Qu2, δaS, and CS are the quantum efficiency for two-photon uncaging, absorbance cross-section, and concentration of the substrate, respectively. NP was measured by HPLC sampling of the microcuvette as for the one-photon photolysis. The uncaging action cross-section δu2 (≡Qu2δaS) can therefore be estimated by (eq. 3): [formula]
Similarly, when the substrate is also fluorescent, its two-photon fluorescence action cross-section δf2S (≡Qf2SδaS) can be estimated as (eq. 4): [formula]
Here the subscripts S and F distinguish values for the substrate and for the fluorescein reference. If one assumes that one- and two-photon quantum efficiencies are the same, then δu2/Qu1 and δf2S/Qf1S should both equal δaS. In fact, the former values are typically about twice the latter. All of them are directly proportional to the assumed value of Qf2 for fluorescein.

[4] = Hydrolysis in the dark (dark stability); format: physicochemical; conditions: buffered solution, read-out: t0.5 Half-life for hydrolysis in the dark (converted)
Experimental: as §1
The photolysis quantum efficiencies for one-photon excitation were determined by irradiating a buffered solution of the substrate with 365 nm ultraviolet light from a B-100 mercury lamp (Spectronics Corp., Westbury, N.Y.). The duration of each irradiation period was controlled by an electronic shutter. Between each irradiation, a small aliquot (10 μL) of the solution was removed for analysis by reversed phase HPLC with a Betabasic-18 column eluted with a isocratic mixture of 60% acetonitrile and water containing 0.1% trifluoracetic acid at a flow rate of 0.8 mL/min, using absorbance detection at 325 nm. Optical densities at 365 nm were maintained near 0.1 so that inner-filtering of the irradiation could be neglected. […] Quantum efficiencies were calculated as (Iσt90%)^−1, where I is the irradiation intensity in einsteins (cm^−2s^−1), σ is the decadic extinction coefficient in cm^2mol^−1 (10^3 times ε, the usual extinction coefficient in M^−1cm^−1), and t90% is the irradiation time in seconds for 90% conversion to product. The total UV intensity, I, was measured by chemical actinometry with 6 mM potassium ferrioxalate in the same setup. Dark hydrolysis rates were measured similarly except without illumination.

[5] = Mechanism of photolysis (triplet state lifetime); format: physicochemical
From the text: The halogenated coumarin derivatives have good dark stability, and high one-photon and two-photon uncaging efficiencies. Without being bound to any particular theory, halogenation of the coumarin may have increased the two-photon cross-sections by lowering the pKa of the chromophore below physiological pH and promoting formation of the more strongly absorbing anion. Also, the heavy atoms may promote intersystem crossing to the triplet, which is believed to be the photochemically reactive state. […] The mechanism of photolysis of compound 7 and compound 23 indicate that the solvolysis occurs via the triplet state with a lifetime of about 1 μs. […] Although compound 6 had the highest cross-section, its photolysis was complicated by multiple secondary photoproducts. The monobromo compound (compound 5) was much more tractable and easily formed caged compounds.

[6] = 515 nm rather than 365 nm (footnote g)

Structure (SMILES): COc1cc(COC(=O)CCC(N)C(=O)O)c([N+](=O)[O-])cc1OC (stereo not drawn) [Compound 2, reference compound]
Qu1 Quantum efficiency for uncaging with one-photon excitation at 365 nm [1]: 0.004
εQu1 One-photon action cross section (product of molar absorptivity and photolysis quantum yield) at 365 nm [1]: 29 M⁻¹ cm⁻¹
ε Molar Absorptivity at 365 nm [2]: 7,300 M^−1cm^−1
ε Molar Absorptivity at 400 nm [2]: 1,570 M^−1cm^−1
λmax Wavelength of peak absorbance [2]: 345 nm
ε Molar absorptivity at absorbance peak [2]: 8,860 M^−1cm^−1

Structure (SMILES): NC(CCC(=O)OC(C(=O)O)c1ccccc1[N+](=O)[O-])C(=O)O (stereo not drawn) [Compound 1, γ-(α-carboxy-2-nitrobenzyl)glutamate, trifluoroacetate salt, reference compound]
Neuron response amplitude, percent of maximum amplitude (rat cortical neurons): less than 20%
Qu1 Quantum efficiency for uncaging with one-photon excitation at 365 nm [1]: 0.14
εQu1 One-photon action cross section (product of molar absorptivity and photolysis quantum yield) at 365 nm [1]: 25 M⁻¹ cm⁻¹
ε Molar Absorptivity at 365 nm [2]: 180 M⁻¹ cm⁻¹

Structure (SMILES): CC(=O)OCc1cc(=O)oc2cc(O)c(Cl)cc12 [Compound 4, 6-Chloro-7-hydroxycoumarin-4-ylmethyl acetate]
Qu1 Quantum efficiency for uncaging with one-photon excitation at 365 nm [1]: 0.019
εQu1 One-photon action cross section (product of molar absorptivity and photolysis quantum yield) at 365 nm [1]: 302 M⁻¹ cm⁻¹
half-life [4]: 228 h
Qf1 Quantum efficiency for fluorescence with one-photon excitation [2]: 0.37
λem [2]: 474 nm
ε Molar Absorptivity at 365 nm [2]: 15,900 M^−1cm^−1
ε Molar Absorptivity at 400 nm [2]: 5,000 M^−1cm^−1
λmax Wavelength of peak absorbance [2]: 370 nm
ε Molar absorptivity at absorbance peak [2]: 16,000 M^−1cm^−1
δf (740 nm) fluorescence action cross-section for two-photon excitation [3]: 9.68 ± 10^−50 cm^4s/photon
δu (740 nm) uncaging action cross-section for two-photon excitation [3]: 1.07 ± 10^−50 cm^4s/photon
δf (800 nm) fluorescence action cross-section for two-photon excitation [3]: 3.22 ± 10^−50 cm^4s/photon
δu (800 nm) uncaging action cross-section for two-photon excitation [3]: 0.34 ± 10^−50 cm^4s/photon

Structure (SMILES): CC(=O)OCc1cc(=O)oc2cc(O)c(Br)cc12 [Compound 5, 6-Bromo-7-hydroxycoumarin-4-ylmethyl acetate]
Qu1 Quantum efficiency for uncaging with one-photon excitation at 365 nm [1]: 0.037
εQu1 One-photon action cross section (product of molar absorptivity and photolysis quantum yield) at 365 nm [1]: 548 M⁻¹ cm⁻¹
half-life [4]: 183 h
Qf1 Quantum efficiency for fluorescence with one-photon excitation [2]: 0.22
λem [2]: 474 nm
ε Molar Absorptivity at 365 nm [2]: 14,800 M^−1cm^−1
ε Molar Absorptivity at 400 nm [2]: 5,000 M^−1cm^−1
λmax Wavelength of peak absorbance [2]: 370 nm
ε Molar absorptivity at absorbance peak [2]: 15,000 M^−1cm^−1
δf (740 nm) fluorescence action cross-section for two-photon excitation [3]: 4.24 ± 10^−50 cm^4s/photon
δu (740 nm) uncaging action cross-section for two-photon excitation [3]: 1.99 ± 10^−50 cm^4s/photon
δf (800 nm) fluorescence action cross-section for two-photon excitation [3]: 1.41 ± 10^−50 cm^4s/photon
δu (800 nm) uncaging action cross-section for two-photon excitation [3]: 0.42 ± 10^−50 cm^4s/photon

Structure (SMILES): CCOP(=O)(OCC)OCc1cc(=O)oc2cc(O)c(Br)cc12 [Compound 23, 6-Bromo-7-hydroxycoumarin-4-ylmethyl diethylphosphate]
Lifetime of triplet state through which solvolysis occurs [5]: about 1 μs

More lines, now with the values ahead:

Qu1 Quantum efficiency for uncaging with one-photon excitation (measured at 515 nm) [1, 6]: 0.038
εQu1 One-photon action cross section (ε and Qu1 measured at 515 nm) [1, 6]: 1,565 M^−1cm^−1
λem [2]: 538 nm
ε Molar Absorptivity (measured at 515 nm) [2, 6]: 41,200 M^−1cm^−1
δu (740 nm) uncaging action cross-section for two-photon excitation [3]: 1.6 10^−50 cm^4s/photon
δf (800 nm) fluorescence action cross-section for two-photon excitation [3]: 68 10^−50 cm^4s/photon
δu (800 nm) uncaging action cross-section for two-photon excitation [3]: 2.6 10^−50 cm^4s/photon
Structure (SMILES): O=c1ccc2c(CCl)c3ccc(O)cc3oc-2c1 [Compound 9]

Qu1 Quantum efficiency for uncaging with one-photon excitation at 365 nm [1]: 0.019
εQu1 One-photon action cross section (product of molar absorptivity and photolysis quantum yield) at 365 nm [1]: 364 M⁻¹ cm⁻¹
ε Molar Absorptivity at 365 nm [2]: 19,200 M^−1cm^−1
ε Molar Absorptivity at 400 nm [2]: 7,560 M^−1cm^−1
λmax Wavelength of peak absorbance [2]: 369 nm
ε Molar absorptivity at absorbance peak [2]: 19,550 M^−1cm^−1
δu (740 nm) uncaging action cross-section for two-photon excitation [3]: 0.89 ± 10^−50 cm^4s/photon
δu (800 nm) uncaging action cross-section for two-photon excitation [3]: 0.42 ± 10^−50 cm^4s/photon
Structure (SMILES): N[C@@H](CCC(=O)OCc1cc(=O)oc2cc(O)c(Br)cc12)C(=O)O [Compound 8, γ-(6-Bromo-7-hydroxycoumarin-4-yl)methyl glutamate]

Qu1 Quantum efficiency for uncaging with one-photon excitation at 365 nm [1]: 0.065
εQu1 One-photon action cross section (product of molar absorptivity and photolysis quantum yield) at 365 nm [1]: 630 M⁻¹ cm⁻¹
half-life [4]: 218 h
Qf1 Quantum efficiency for fluorescence with one-photon excitation [2]: 0.16
λem [2]: 498 nm
ε Molar Absorptivity at 365 nm [2]: 9,700 M^−1cm^−1
ε Molar Absorptivity at 400 nm [2]: 15,700 M^−1cm^−1
λmax Wavelength of peak absorbance [2]: 397 nm
ε Molar absorptivity at absorbance peak [2]: 15,900 M^−1cm^−1
δu (740 nm) uncaging action cross-section for two-photon excitation [3]: 0.96 ± 10^−50 cm^4s/photon
δu (800 nm) uncaging action cross-section for two-photon excitation [3]: 3.1 ± 10^−50 cm^4s/photon
Structure (SMILES): CC(=O)OCc1c(Br)c(=O)oc2c(Br)c(O)c(Br)cc12 [Compound 6, 3,6,8-Tribromo-7-hydroxycoumarin-4-ylmethyl acetate]
